In CN103330941A, “一种紫杉醇注射剂的药物组合物” (Individual, priority 2013, dated 2013):

Legend:
[1] = cited from earlier work
[2] = in the human body; cited from earlier work
[3] = Experiment 2, formulation screening: dissolution of paclitaxel; assay type: physicochemical

Compound | solubility in organic solvents (in words) ([1]; methanol, ethanol or chloroform) | solubility in water (in words) ([1]; water) | effective bioavailability [2] | solubilizing (hydrotropic) effect on paclitaxel ([3]; alone) | solubilizing (hydrotropic) effect on paclitaxel ([3]; used together with 1,2-propanediol)
CC(=O)O[C@H]1C(=O)[C@@]2(C)[C@H]([C@H](OC(=O)c3ccccc3)[C@]3(O)C[C@H](OC(=O)[C@H](O)[C@@H](NC(=O)c4ccccc4)c4ccccc4)C(C)=C1C3(C)C)[C@]1(OC(C)=O)CO[C@@H]1C[C@@H]2O [紫杉醇, 5β,20-环氧-1,2α,4,7β,10β,13α-六羟基紫杉烷-11-烯-9-酮-4,10-二乙酸酯-2-苯甲酸酯-13[(2’R,3’S)-N-苯甲酰-3-苯基异丝氨酸酯]] | 溶解 | 几乎不溶 | 低 | – | –
CC(=O)Oc1ccccc1C(=O)[O-].[Na+] [乙酰水杨酸钠] | – | – | – | 具有助溶作用 | 具有增加的助溶作用
